Results taken from PMC11051419, “Structural Insights into the Marine Alkaloid Discorhabdin G as a Scaffold towards New Acetylcholinesterase Inhibitors” (Marine Drugs, 2024).
Where two headings read alike, the source gives them in different places.

What was measured:
[1] = target: T1, electric eel acetylcholinesterase (eeAChE) (Electrophorus electricus, UniProt O42275); assay: Inhibition of electric eel acetylcholinesterase (modified Ellman method); assay type: biochemical; conditions: for Ki: Dixon plot, substrate 0.125, 0.25, 0.5 mM; for Ki / IC50: 3 as acetate salt; for IC50: Ellman method, pH 7.4, 25 °C; for type of inhibition against eeAChE: kinetic analysis, Dixon plot (Figure S4)
T1 construct: purchased Sigma-Aldrich
T1 sequence (O42275 24-633): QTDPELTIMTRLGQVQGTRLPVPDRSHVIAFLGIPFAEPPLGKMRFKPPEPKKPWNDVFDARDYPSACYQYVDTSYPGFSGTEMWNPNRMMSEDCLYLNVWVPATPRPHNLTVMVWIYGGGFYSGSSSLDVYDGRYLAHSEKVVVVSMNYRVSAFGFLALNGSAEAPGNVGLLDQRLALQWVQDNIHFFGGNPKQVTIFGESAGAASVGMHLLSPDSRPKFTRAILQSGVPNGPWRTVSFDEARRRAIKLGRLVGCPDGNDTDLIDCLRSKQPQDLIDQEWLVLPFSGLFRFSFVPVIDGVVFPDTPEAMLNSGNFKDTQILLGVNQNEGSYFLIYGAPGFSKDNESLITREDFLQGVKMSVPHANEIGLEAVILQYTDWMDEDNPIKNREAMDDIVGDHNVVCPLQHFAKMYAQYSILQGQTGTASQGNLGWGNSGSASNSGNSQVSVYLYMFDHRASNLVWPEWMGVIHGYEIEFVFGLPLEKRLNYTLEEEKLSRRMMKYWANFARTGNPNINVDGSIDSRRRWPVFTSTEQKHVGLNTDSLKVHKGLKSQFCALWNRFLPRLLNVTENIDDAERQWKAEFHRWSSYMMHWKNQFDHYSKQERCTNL
Procedure: (§1) The inhibition of cholinesterase activity was determined using a modification of the Ellman method, which was adapted for microtiter plates. Stock solutions of 3, 7, and 8 (2 mg/mL) were prepared in pure EtOH. […] Stock solutions of the potential inhibitors and the positive controls were added to the microtiter plate wells and progressively diluted in 100 mM potassium phosphate buffer (pH 7.4) to a final volume of 50 μL. Then, 100 μL acetylthiocholine chloride (1 mM) and 5,5′-dithiobis-2-nitrobenzoic acid (0.5 mM) in 100 mM potassium phosphate buffer (pH 7.4) was added into the microtiter plate wells. The cholinesterases that were used (eeAChE, hAChE, and BChE; all from Sigma-Aldrich, St. Louis, MO, USA) were dissolved in 100 mM potassium phosphate buffer (pH 7.4) to a final concentration of 0.0075 U/mL. Each cholinesterase solution (50 μL) was added into the microtiter plate wells to start the reaction, which was followed spectrophotometrically at 405 nm at 25 °C over 5 min using a kinetic microplate reader (Dynex Technologies Inc., Chantilly, VA, USA). Blank reactions without inhibitors were run with the appropriate dilutions of EtOH, and the readings were corrected according to the corresponding blanks. Each measurement was repeated at least three times. […] The data were analyzed using the OriginPro software (OriginPro 2021 (9.8), OriginLab Corporation, Northampton, MA, USA).

[2] = target: T2, human recombinant acetylcholinesterase (hAChE) (Homo sapiens, UniProt P22303); assay: Inhibition of human recombinant acetylcholinesterase (modified Ellman method); assay type: biochemical; conditions: for Ki: Dixon plot, substrate 0.125, 0.25, 0.5 mM; for Ki / IC50: 3 as acetate salt; for IC50: Ellman method, pH 7.4, 25 °C; for type of inhibition against hAChE: kinetic analysis, Dixon plot (Figure S4)
T2 construct: purchased Sigma-Aldrich
T2 sequence (P22303 32-614): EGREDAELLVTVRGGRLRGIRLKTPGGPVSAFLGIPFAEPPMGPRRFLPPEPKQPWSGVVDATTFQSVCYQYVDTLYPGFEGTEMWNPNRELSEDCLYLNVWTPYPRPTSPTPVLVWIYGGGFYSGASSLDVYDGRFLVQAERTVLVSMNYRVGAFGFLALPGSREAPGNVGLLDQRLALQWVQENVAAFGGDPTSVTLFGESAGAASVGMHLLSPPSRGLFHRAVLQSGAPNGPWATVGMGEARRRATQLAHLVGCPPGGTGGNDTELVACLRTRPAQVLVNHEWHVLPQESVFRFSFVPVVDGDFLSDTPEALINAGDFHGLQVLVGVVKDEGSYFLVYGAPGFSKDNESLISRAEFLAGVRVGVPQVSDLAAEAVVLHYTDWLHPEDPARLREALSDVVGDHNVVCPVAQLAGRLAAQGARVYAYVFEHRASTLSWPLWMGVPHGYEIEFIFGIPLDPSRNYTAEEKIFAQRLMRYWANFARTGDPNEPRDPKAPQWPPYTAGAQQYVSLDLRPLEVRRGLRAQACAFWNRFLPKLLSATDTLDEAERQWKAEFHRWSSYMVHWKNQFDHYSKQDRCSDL
Procedure: as §1

[3] = target: T3, horse serum butyrylcholinesterase (BChE) (Equus caballus, UniProt P81908); assay: Inhibition of horse serum butyrylcholinesterase (modified Ellman method); assay type: biochemical; conditions: for IC50: Ellman method, pH 7.4, 25 °C, 3 as acetate salt; for type of inhibition against BChE: kinetic analysis, Dixon plot (Figure S4)
T3 construct: human recombinant AChE (hAChE), and horse serum BChE; purchased Sigma-Aldrich; host or cells: horse serum
T3 sequence (P81908 whole entry): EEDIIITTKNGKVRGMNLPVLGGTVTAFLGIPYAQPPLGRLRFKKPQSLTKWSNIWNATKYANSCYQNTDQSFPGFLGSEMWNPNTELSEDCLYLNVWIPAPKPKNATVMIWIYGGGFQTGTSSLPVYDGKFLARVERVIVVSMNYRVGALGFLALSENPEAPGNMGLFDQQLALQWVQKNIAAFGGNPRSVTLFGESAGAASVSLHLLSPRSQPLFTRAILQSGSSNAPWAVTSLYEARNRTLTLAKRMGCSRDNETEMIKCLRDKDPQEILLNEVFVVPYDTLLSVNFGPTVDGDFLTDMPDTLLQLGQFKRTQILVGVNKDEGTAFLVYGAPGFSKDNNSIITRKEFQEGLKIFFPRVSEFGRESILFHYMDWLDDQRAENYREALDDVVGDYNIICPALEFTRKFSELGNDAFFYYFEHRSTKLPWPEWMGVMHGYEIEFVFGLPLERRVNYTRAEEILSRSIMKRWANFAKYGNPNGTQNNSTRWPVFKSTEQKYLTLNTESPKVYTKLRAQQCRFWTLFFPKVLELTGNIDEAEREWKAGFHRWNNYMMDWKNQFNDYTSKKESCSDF
Procedure: as §1

[4] = target: T1, electric eel acetylcholinesterase (eeAChE); conditions: cited from earlier work
[5] = target: T2, human recombinant acetylcholinesterase (hAChE); conditions: cited from earlier work
[6] = target: T3, horse serum butyrylcholinesterase (BChE); conditions: cited from earlier work
[7] = tested on: neuromuscular transmission or skeletal muscle function; conditions: electrophysiological study; cited from earlier work
[8] = discorhabdin G as trifluoroacetate (TFA) salt, ref Botić et al. [5]

Compound | Ki [1] [µM] | IC50 [1] [µM] | type of inhibition against eeAChE [1] | Ki [2] [µM] | IC50 [2] [µM] | type of inhibition against hAChE [2] | IC50 [3] [µM] | type of inhibition against BChE [3] | also measured
Cc1nc2c3n1CCN=C3c1ccccc1C2=O [Compound 3, 5-methyl-2H-benzo[h]imidazo[1,5,4-de]quinoxalin-7(3H)-one] | 7.3 | 13.5 | reversible competitive | 5.8 | 16.9 | reversible competitive | > 400 | reversible competitive | 
Cc1nc2c(o1)C(=O)c1ccccc1C2=O [Compound 7, 2-methylnaphtho[2,3-d]oxazole-4,9-dione] | 65 | 188 | reversible competitive | 50 | 234 | reversible competitive | 145 | reversible competitive | Ki ([3]; Dixon plot, substrate 0.125, 0.25, 0.5 mM): 50 µM
CC(=O)NC1=C2NCCN=C2c2ccccc2C1=O [Compound 8, N-(6-oxo-2,3,4,6-tetrahydrobenzo[f]quinoxalin-5-yl)acetamide] |  | > 400 |  |  | > 400 |  | > 400 |  | 
CN(C)C(=O)Oc1cccc([N+](C)(C)C)c1 [Neostigmine methylsulfate, reference compound] |  | 6 |  |  |  |  | 83.7 |  | 
discorhabdin G [Compound 1] |  |  |  |  |  |  |  |  | IC50 [4, 8]: 1300 nM; Ki [4, 8]: 1600 nM; type of inhibition against eeAChE ([4]; previously observed): reversible competitive; IC50 [5, 8]: 116 µM; Ki [5, 8]: 56.2 µM; type of inhibition against hAChE ([5]; previously observed): reversible competitive; IC50 [6, 8]: 7 µM; Ki [6, 8]: 5 µM; type of inhibition against BChE ([6]; previously observed): reversible competitive; adverse effects on neuromuscular transmission or skeletal muscle function [7]: no adverse effects
